In patent US7550438B2, “Methods for production of growth-promoting proteins and peptides for kidney epithelial cells” (The University of Chicago, priority 1997, dated 2009):

Key:
[1] = system: kidneys of rats given mercuric chloride; assay: BrdU labeling of DNA synthesis in kidneys of rats given mercuric chloride; assay type: in vivo, rat; details: 14-Ser 100 μg 24 hours before mercuric chloride; 1 hour BrdU labeling 24 hours after
Experimental: To determine if the beneficial effects of 14-Ser peptide on survival and renal function were the result of the mitogenic action of the peptide, DNA synthesis was measured in the kidneys of rats given mercuric chloride. 5-Bromo-2′-deoxyuridine (BrdU), a nonradioactive analog of thymidine that is incorporated into DNA was used to label nuclei. A monoclonal antibody to BrdU and diamidobenzidene staining were used to detect nuclei undergoing DNA synthesis in histological sections of renal tissue. BrdU was dissolved in 20% ethanol and was injected intra-peritoneally 23 hours after administration of mercuric chloride. One hour later the kidneys were quickly perfused with a warm solution of phosphate-buffered saline via an aortic catheter to eliminate red blood cells from the organ and maintain potency of the renal tubules. The capsule was removed from the kidneys which were the bisected longitudinally, and fixed in formalin for 4 hours, and then in 70% ethanol. Tissue sections were prepared and BrdU-labeled nuclei were detected as described above.
In the kidneys of a rats given mercuric chloride, extensive necrosis of tubular cells of the terminal portion (S3) of the proximal nephron was observed, as expected in this well-characterized model system. The extent of necrosis was somewhat variable from rat-to-rat but was always confined to the aglomerular cortex. […]

[2] = system: rats with mercuric chloride-induced acute renal failure; assay: Mercuric chloride-induced acute renal failure in rats: survival and renal function; assay type: in vivo, rat; details: given 24 hours before mercuric chloride (EGF 20 μg, s.c.)
BSC-1 cells = assay: Inhibition of WGF and WGF-derived peptide mitogenesis in BSC-1 cells; assay type: cell-based, African green monkey; details: TGF-β2 6 ng/ml; exogenous 14-Ser up to 5 μg/ml
Description: In these studies the pentamers, PQGNH (SEQ ID NO: 36) or YPQGN (SEQ ID NO: 3) were synthesized, purified by HPLC and then assayed for growth-promoting activity. […] Because the pentamers are not mitogenic, when they bind to the site, growth is not observed. After pentamers are bound to the site, the pentamers appear to prevent the hexapeptide from gaining access to the membrane.
Transforming growth factor (TGF)-β2 is an autocrine growth inhibitor secreted by BSC-1 cells that limits proliferation in culture. Exogenous TGF-β2 was added to the culture medium to determine its capacity to inhibit the growth-promoting effect of 14-Ser. TGF-β2 at a concentration of 1 ng/ml was sufficient to abolish the 25% stimulation of growth induced by 14-Ser. At a TGF-β2 concentration of 2 ng/ml, growth was inhibited by 30% in the presence or absence of 14-Ser; at 10 ng/ml, inhibition was 60%.
Because TGF-β2 inhibits proliferation induced by diverse mitogens, a more specific inhibitor was sought. […] Cells were preincubated for 30 minutes with the pentapeptide YPQGN (SEQ ID NO: 3). The culture medium was then aspirated, the monolayer was rinsed, fresh medium was added, and the number of cells counted 4 days later. Preincubation of cells with YPQGN (SEQ ID NO: 3) inhibited the mitogenic effect of the 6-amino acid peptide.

Sequence: AQPYPQGNHEASYG
- BrdU-labeled nuclei adjacent to the zone of tubular cell necrosis [1]: many more labeled nuclei
- survival on day 4 ([2]; listed as 14-Ser): 71%
- survival on day 4 ([2]; listed as 14-Ser WGF-derived peptide): 73%
- reversal of TGF-β2 growth inhibition (BSC-1 cells): did not reverse growth inhibition
